In brackets after ≈: the same amount, converted by molar mass.
Tests used:
Type in all cases: functional, cell-based
CCRF-CEM [1] = experiment: In vitro antiviral activity expressed as IC50 against HIV (CEM cells); 11-25; settings: Homo sapiens
Vero = experiment: In vitro antiviral activity expressed as IC50 against herpes simplex virus type 2 (HSV-2) in vero cells; settings: Chlorocebus sabaeus
CCRF-CEM [2] = experiment: In vitro antiviral activity expressed as IC50 against HIV (CEM cells); settings: Homo sapiens

SMILES | IC50 (CCRF-CEM [1]) | IC50 (Vero) | IC50 (CCRF-CEM [2])
CC(Cn1cnc2c(=O)[nH]c(N)nc21)OCP(=O)(O)O (stereo not drawn) | 11 µg/mL (≈ 36.3 µM) | – | –
Nc1nc(O)c2ncn([C@H]3CCC[C@@H]3OCP(=O)(O)O)c2n1 | – | > 100 µg/mL | > 100 µg/mL
Nc1nc(O)c2ncn([C@H]3CCC[C@H]3OCP(=O)(O)O)c2n1 | – | > 100 µg/mL | 20 µg/mL (≈ 60.7 µM)
Nc1nc(O)c2ncn([C@@H]3C=C[C@H](OCP(=O)(O)O)C3)c2n1 | – | – | 26 µg/mL (≈ 79.5 µM)
Nc1nc(O)c2ncn([C@H]3CC[C@@H](OCP(=O)(O)O)C3)c2n1 | – | > 100 µg/mL | > 100 µg/mL
Nc1nc(O)c2ncn([C@H]3C=C[C@@H](OCP(=O)(O)O)C3)c2n1 | – | > 100 µg/mL | 66 µg/mL (≈ 202 µM)
CC(COCP(=O)(O)O)n1cnc2c(O)nc(N)nc21 (stereo not drawn) | – | – | 3 µg/mL (≈ 9.89 µM)
Nc1nc2c(ncn2CCOCP(=O)(O)O)c(=O)[nH]1 [GS-438] | – | 0.7 µg/mL (≈ 2.42 µM) | 0.2 µg/mL (≈ 0.692 µM)

Source: ChEMBL document CHEMBL1126432, “Synthesis and biological activity of carbocyclic derivatives of the potent antiviral agent 9-[2-(phosphonomethoxy)ethyl]guanine (PMEG)” (Bioorg Med Chem Lett, 1992)
